# Measurements reported in ChEMBL document CHEMBL1122830, “N-(Phosphonoacetyl)amino phosphonates. Phosphonate analogues of N-(phosphonoacetyl)-L-aspartic acid (PALA)” (1985).
# Activity calls are given as the source filed them. No cut-off for these calls is given here.
# Key:
# KB [1] = test: Inhibitory activity against human KB cell line at the dose range of 1-400 (ug/mL); NA=Not active; format: functional, cell-based
# KB [2] = test: Inhibitory activity against human KB cell line; format: functional; details: read-out: ID50 (the source's name)
Compound,ID50 (KB [1]),IC50 (KB [2]) [µg/mL]
CCCC(NC(=O)CP(=O)(O)O)P(=O)(O)O (stereo in doubt; form 2),inactive,
CCOP(=O)(OCC)C(N)CCC(=O)OC (stereo unspecified),inactive,
CCOP(=O)(OCC)C(N)C(C)(C)C.O=C(O)C(=O)O (stereo unspecified),,240
CC(C)(C)C(NC(=O)CP(=O)(O)O)P(=O)(O)O (stereo unspecified),inactive,
O=C(CP(=O)(O)O)NC1(P(=O)(O)O)CCCC1,inactive,
CC(C)C(NC(=O)CP(=O)(O)O)P(=O)(O)O (stereo unspecified),inactive,
CCOC(=O)CCCC(N)P(=O)(OCC)OCC (stereo unspecified),inactive,
CCP(=O)(O)CNC(=O)CP(=O)(O)O,inactive,
CCOP(=O)(OCC)C(N)C1CCCC1 (stereo unspecified),inactive,
O=C(O)CCCC(NC(=O)CP(=O)(O)O)P(=O)(O)O (stereo unspecified),inactive,
O=C(CP(=O)(O)O)NC(c1ccccc1)P(=O)(O)O (stereo unspecified),inactive,
O=C(O)CC(NC(=O)CP(=O)(O)O)P(=O)(O)O (stereo unspecified),inactive,
O=C(CP(=O)(O)O)NC(C1CCCCC1)P(=O)(O)O (stereo unspecified),inactive,
CC(C)(NC(=O)CP(=O)(O)O)P(=O)(O)O,inactive,
O=C(CP(=O)(O)O)NC(C1CC1)P(=O)(O)O (stereo unspecified),inactive,
CCOP(=O)(OCC)C(N)C1CC1 (stereo unspecified),inactive,
CC(NC(=O)CP(=O)(O)O)P(=O)(O)O (stereo unspecified),inactive,
O=C(CP(=O)(O)O)NC(C1CCCC1)P(=O)(O)O (stereo unspecified),inactive,
O=C(CP(=O)(O)O)NC(CP(=O)(O)O)C(=O)O (stereo unspecified),inactive,
CCOP(=O)(OCC)C(N)C1CCC1 (stereo unspecified),inactive,
O=C(O)CCC(NC(=O)CP(=O)(O)O)P(=O)(O)O (stereo unspecified),inactive,
O=C(CP(=O)(O)O)NC(C1CCC1)P(=O)(O)O (stereo unspecified),inactive,
CCOP(=O)(OCC)C(N)C1CCCCC1 (stereo unspecified),inactive,
O=C(CP(=O)(O)O)NCCCP(=O)(O)O,inactive,
O=C(O)CC(NC(=O)CP(=O)(O)O)C(=O)O (stereo unspecified),inactive,
CCCC(NC(=O)CP(=O)(O)O)P(=O)(O)O (stereo in doubt; form 1),inactive,
